Among the data in US20250326772A1, “MRGPRX2 ANTAGONISTS, PHARMACEUTICAL COMPOSITION INCLUDING MRGPRX2 ANTAGONIST, AND METHOD OF TREATING MRGPRX2-MEDIATED DISEASE OR DISORDER” (KYORIN PHARMACEUTICAL CO., LTD., priority 2024, published 2025) are IC50 values, retold here.

pIC50: −log10 of the molar value. Some results are limits rather than exact numbers.

The target of the experiment is T1, MRGPRX2 (Homo sapiens, UniProt Q96LB1).
T1 sequence (Q96LB1 1-330): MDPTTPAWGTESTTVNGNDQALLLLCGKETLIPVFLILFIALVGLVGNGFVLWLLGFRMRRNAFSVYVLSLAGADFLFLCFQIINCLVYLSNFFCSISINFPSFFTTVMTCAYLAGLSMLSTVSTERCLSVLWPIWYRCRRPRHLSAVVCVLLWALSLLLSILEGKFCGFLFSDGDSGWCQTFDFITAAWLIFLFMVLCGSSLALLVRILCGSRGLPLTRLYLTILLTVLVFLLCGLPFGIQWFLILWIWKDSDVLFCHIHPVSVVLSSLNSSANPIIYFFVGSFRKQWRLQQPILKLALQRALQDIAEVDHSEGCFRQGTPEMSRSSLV
Description: MRGPRX2 reporter cell assay (NFAT-RE luciferase, Substance P stimulation). Format: cell-based. The conditions noted are these: U2OS cells stably transfected with MRGPRX2 and NFAT-RE luciferase reporter, Substance P at EC80. A digest of the protocol: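 U2OS cells stably expressing MRGPRX2 and an NFAT-RE luc2P reporter, pre-incubated 30 min at 37° C with compound (0.5% DMSO), then stimulated with Substance P at EC80 for 6 h. Luminescence after ONE-GLO; percent inhibition fitted by four-parameter logistic to IC50.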

As for `Cc1cc(-c2c(-c3c(C(F)F)nn4c3OC[C@@](C)(O)C4)[nH]c3ncccc23)c(C#N)s1` [EX. 451], where the note is “class symbols”, the pIC50 was > 8.00.
On the same count and under the same terms, to `Cc1cc(-c2c(-c3c(C(F)F)nn4c3OCCCC4)[nH]c3ncccc23)c(C#N)s1` [EX. 452] belongs > 8.00.
As for `O[C@@H]1COc2c(-c3[nH]c4ncccc4c3-c3ccsc3Cl)c(C(F)F)nn2C1` [EX. 453], the pIC50 (class symbols) is > 8.00.
Same read-out and setting: to `O[C@@H]1COc2c(-c3[nH]c4ncccc4c3-c3cccnc3OC(F)F)c(C(F)F)nn2C1` [EX. 454] belongs > 8.00.
Same read-out and setting: then `O[C@@H]1COc2c(-c3[nH]c4ncccc4c3-c3cccnc3OC(F)F)c(C3CC3)nn2C1` [EX. 455], with > 8.00; and `CS(=O)(=O)N[C@@H]1COc2c(-c3[nH]c4ncccc4c3-c3cccnc3OC(F)F)c(C3CC3)nn2C1` [EX. 456], with > 8.00.
Consider `Cc1cc(-c2c(-c3c(C4CC4)nn4c3OC[C@@H](NS(C)(=O)=O)C4)[nH]c3ncccc23)c(C#N)s1` [EX. 457], for which the pIC50 (class symbols) was > 8.00.
For the compound `Cc1cc(-c2c(-c3c(C(F)F)nn4c3OC[C@@H](O)C4)[nH]c3ncccc23)c(C#N)s1` [EX. 458], the pIC50 (class symbols) was > 8.00.
Turning to `Cc1cc(-c2c(-c3c(C)nn4c3OC[C@@H](O)C4)[nH]c3ncccc23)c(C#N)s1` [EX. 459], for the setting “class symbols”, the negative logarithm of the IC50 (pIC50) was > 8.00.
With `Cc1cc(-c2c(-c3c(C4CC4)nn4c3OC[C@@H](O)C4)[nH]c3ncccc23)c(C#N)s1` [EX. 460], under “class symbols”, the pIC50 is > 8.00.
For `O[C@@H]1COc2c(-c3[nH]c4ncccc4c3-c3csnc3OC(F)F)c(C(F)F)nn2C1` [EX. 461], the pIC50 (class symbols) was > 8.00.
Still for that read-out and setting: to `COc1ncccc1-c1c(-c2c(C(F)F)nn3c2OC[C@@H](O)C3)[nH]c2ncccc12` [EX. 462] belongs > 8.00; to `O[C@@H]1COc2c(-c3[nH]c4ncccc4c3-c3ccncc3OC(F)F)c(C(F)F)nn2C1` [EX. 463], > 8.00; to `O[C@@H]1COc2c(-c3[nH]c4ncccc4c3-c3ccccc3OC(F)(F)F)c(C(F)F)nn2C1` [EX. 464], > 8.00.
Same read-out and setting: to `O[C@@H]1COc2c(-c3[nH]c4ncccc4c3-c3ccccc3)c(C(F)F)nn2C1` [EX. 465] belongs > 8.00; to `O[C@@H]1COc2c(-c3[nH]c4ncccc4c3-c3cccc(F)c3OC(F)F)c(C(F)F)nn2C1` [EX. 466], > 8.00; to `O[C@@H]1COc2c(-c3[nH]c4ncccc4c3-c3ccc(F)cc3OC(F)F)c(C(F)F)nn2C1` [EX. 467], > 8.00.
For `O[C@@H]1COc2c(-c3[nH]c4ncccc4c3-c3cc(F)ccc3OC(F)F)c(C(F)F)nn2C1` [EX. 468], where the note is “class symbols”, the pIC50 is > 8.00.
Still for that read-out and setting: to `O[C@@H]1COc2c(-c3[nH]c4ncccc4c3-c3ccccc3OC(F)F)c(C(F)F)nn2C1` [EX. 469] belongs > 8.00; to `N#Cc1ncccc1-c1c(-c2c(C(F)F)nn3c2OC[C@@H](O)C3)[nH]c2ncccc12` [EX. 470], > 8.00; to `COc1ccc(C#N)c(-c2c(-c3c(C(F)F)nn4c3OC[C@@H](F)C4)[nH]c3ncccc23)c1` [EX. 471], > 8.00.
Still for that read-out and setting: to `COc1ncc(F)cc1-c1c(-c2c(C(F)F)nn3c2OC[C@@H](O)C3)[nH]c2ncccc12` [EX. 476] belongs > 8.00.
Same read-out and setting: then `N#Cc1ncccc1-c1c(-c2c(C(F)F)nn3c2OC[C@@H](O)C3)[nH]c2ncccc12` [EX. 477], with > 8.00.
As for `Cc1cc(-c2c(-c3c(C(F)F)nn4c3OC[C@@H](O)C4)[nH]c3ncccc23)c(Cl)s1` [EX. 479], the pIC50 (class symbols) was > 8.00.
Same read-out and setting: then `Cc1nn2c(c1-c1[nH]c3ncccc3c1-c1cn(C)nc1OC(F)F)OC[C@@H](O)C2` [EX. 480, (S)-3-(3-(3-(difluoromethoxy)-1-methyl-1H-pyrazol-4-yl)-1 H-pyrrolo[2,3-b]pyridin-2-yl)-2-methyl-6,7-dihydro-5H-pyrazolo[5,1-b] [1,3]oxazin-6-ol], with > 8.00; and `Cn1cc(-c2c(-c3c(C(F)F)nn4c3OC[C@@](C)(O)C4)[nH]c3ncccc23)c(OC(F)F)n1` [EX. 481], with > 8.00.
Still for that read-out and setting: to `Cn1cc(-c2c(-c3c(C(F)F)nn4c3OC[C@@](C)(OCC(N)=O)C4)[nH]c3ncccc23)c(OC(F)F)n1` [EX. 482] belongs > 8.00.
Same read-out and setting: then `COC(=O)N[C@@H]1COc2c(-c3[nH]c4ncccc4c3-c3cn(C)nc3OC(F)F)c(C3CC3)nn2C1` [EX. 483], with > 8.00.
As to `Cn1cc(-c2c(-c3c(C4CC4)nn4c3OC[C@@H](NS(C)(=O)=O)C4)[nH]c3ncccc23)c(OC(F)F)n1` [EX. 484], for the setting “class symbols”, the pIC50 is > 8.00.
The same measure, in the same setting: to `Cn1cc(-c2c(-c3c(C4CC4)nn4c3OC[C@@H](O)C4)[nH]c3ncccc23)c(OC(F)F)n1` [EX. 485] belongs > 8.00; to `CO[C@]1(C)COc2c(-c3[nH]c4ncccc4c3-c3cc(C)sc3C#N)c(C(F)F)nn2C1` [EX. 486, (S)-3-(2-(2-(difluoromethyl)-6-methoxy-6-methyl-6,7-dihydro-5H-pyrazolo[5,1-b] [1,3]oxazin-3-yl)-1H-pyrrolo[2,3-b]pyridin-3-yl)-5-methylthiophene-2-carbonitrile], > 8.00.
With `FC(F)Oc1cnccc1-c1c(-c2c(C(F)F)nn3c2OCCC3)[nH]c2ncccc12` [EX. 489], under “class symbols”, the pIC50 is > 8.00.
With `C[C@@]1(N)COc2c(-c3[nH]c4ncccc4c3-c3cccnc3OC(F)F)c(C(F)F)nn2C1` [EX. 490], the pIC50 (class symbols) was > 8.00.
As for `Cn1cc(-c2c(-c3c(C(F)F)nn4c3OC[C@@H](O)C4)[nH]c3ncccc23)c(C#N)n1` [EX. 491, (S)-4-(2-(2-(difluoromethyl)-6-hydroxy-6,7-dihydro-5H-pyrazolo[5,1-b] [1,3]oxazin-3-yl)-1H-pyrrolo[2,3-b]pyridin-3-yl)-1-methyl-1H-pyrazole-3-carbonitrile], for the setting “class symbols”, the pIC50 was > 8.00.
Regarding `COC(=O)N[C@]1(C)COc2c(-c3[nH]c4ncccc4c3-c3cccnc3OC(F)F)c(C(F)F)nn2C1` [EX. 492], the pIC50 was 8.72. Under “class symbols”, the pIC50 was > 8.00.
With `Cn1cc(-c2c(-c3c(C(F)F)nn4c3OC[C@@](C)(OCCO)C4)[nH]c3ncccc23)c(OC(F)F)n1` [EX. 493], under “class symbols”, the pIC50 is > 8.00.
Turning to `COC(=O)N[C@@H]1COc2c(-c3[nH]c4ncccc4c3-c3cc(C)sc3C#N)c(C)nn2C1` [EX. 494], the pIC50 (class symbols) is > 8.00.
Same read-out and setting: then `OCCO[C@@H]1COc2c(-c3[nH]c4ncccc4c3-c3cccnc3OC(F)F)c(C(F)F)nn2C1` [EX. 495], with > 8.00; and `Cc1nn2c(c1-c1[nH]c3ncccc3c1-c1cccnc1OC(F)F)OC[C@@H](O)C2` [EX. 496], with > 8.00.
Still for that read-out and setting: then `CO[C@@H]1COc2c(-c3[nH]c4ncccc4c3-c3cccnc3OC(F)F)c(C)nn2C1` [EX. 497], with > 8.00; and `Cc1nn2c(c1-c1[nH]c3ncccc3c1-c1cccnc1OC(F)F)OC[C@@H](OCCO)C2` [EX. 498], with > 8.00.
On the same count and under the same terms, then `CO[C@@H]1COc2c(-c3[nH]c4ncccc4c3-c3cccnc3OC(F)F)c(C(F)F)nn2C1` [EX. 499], with > 8.00; and `Cn1cc(-c2c(-c3c(C(F)F)nn4c3OC[C@@H](OCCO)C4)[nH]c3ncccc23)c(C#N)n1` [EX. 500], with > 8.00; and `Cn1cc(-c2c(-c3c(C(F)F)nn4c3OC[C@@H](OCC(C)(C)O)C4)[nH]c3ncccc23)c(C#N)n1` [EX. 501], with > 8.00.
Turning to `CCO[C@@H]1COc2c(-c3[nH]c4ncccc4c3-c3cn(C)nc3C#N)c(C(F)F)nn2C1` [EX. 502], the pIC50 (class symbols) is > 8.00.
Same read-out and setting: then `CNC(=O)O[C@@H]1COc2c(-c3[nH]c4ncccc4c3-c3cn(C)nc3C#N)c(C(F)F)nn2C1` [EX. 503], with > 8.00.
Turning to `Cc1cc(-c2c(-c3c(C)nn4c3OC[C@@H](OCCO)C4)[nH]c3ncccc23)c(C#N)s1` [EX. 504], the pIC50 (class symbols) was > 8.00.
Still for that read-out and setting: then `Cc1cc(-c2c(-c3c(C)nn4c3OC[C@@H](NC(=O)C3CC3)C4)[nH]c3ncccc23)c(C#N)s1` [EX. 505], with > 8.00.
On the same count and under the same terms, to `CO[C@@H]1COc2c(-c3[nH]c4ncccc4c3-c3cc(C)sc3C#N)c(C(F)F)nn2C1` [EX. 506] belongs > 8.00; to `Cc1cc(-c2c(-c3c(C(F)F)nn4c3OC[C@@H](OCCO)C4)[nH]c3ncccc23)c(C#N)s1` [EX. 507], > 8.00; to `N#Cc1ncccc1-c1c(-c2c(C(F)F)nn3c2OC[C@@H](OCCO)C3)[nH]c2ncccc12` [EX. 508], > 8.00.
On the same count and under the same terms, to `CC(C)(O)CO[C@@H]1COc2c(-c3[nH]c4ncccc4c3-c3cccnc3C#N)c(C(F)F)nn2C1` [EX. 509] belongs > 8.00; to `COC(=O)N[C@@H]1COc2c(-c3[nH]c4ncccc4c3-c3cccnc3OC(F)F)c(C(F)F)nn2C1` [EX. 512, methyl(S)-(3-(3-(2-(difluoromethoxy)pyridin-3-yl)-1H-10 pyrrolo[2,3-b]pyridin-2-yl)-2-(difluoromethyl)-6,7-dihydro-5H-pyrazolo[5,1-b] [1,3]oxazin-6-yl) carbamate], > 8.00; to `COC(=O)N[C@@H]1COc2c(-c3[nH]c4ncccc4c3-c3cccnc3OC(F)F)c(C)nn2C1` [EX. 513], > 8.00.
On to `COC(=O)N[C@@H]1COc2c(-c3[nH]c4ncccc4c3-c3cccnc3C#N)c(C(F)F)nn2C1` [EX. 514], for which the pIC50 (class symbols) is > 8.00.
Still for that read-out and setting: then `COC(=O)N[C@@H]1COc2c(-c3[nH]c4ncccc4c3-c3ccncc3C#N)c(C(F)F)nn2C1` [EX. 515], with > 8.00; and `COC(=O)N[C@@H]1COc2c(-c3[nH]c4ncccc4c3-c3cc(C)sc3C#N)c(C(F)F)nn2C1` [EX. 516], with > 8.00.
